Results reported in article PMC10215302 (Antibiotics, 2023).
In brackets after ≈: the same amount, converted by molar mass. Like-named read-outs stand apart in the source and are kept apart here.

Experiments:
Test in all cases: microbe, parasite or virus in culture
Details in all cases: Staphylococcus aureus
[1] = system: S. aureus SA0422
[2] = system: S. aureus SA0085
[3] = system: S. aureus ATCC 29213
[4] = system: S. aureus SA0736
[5] = system: S. aureus SA0077
[6] = SA0422, read-out: MIC values, Table S1: SA0422 DAP (derivative after 40 passages on daptomycin)
[7] = SA0422, read-out: MIC values, Table S1: SA0422 VAN (derivative after 40 passages on vancomycin)
[8] = SA0085, read-out: MIC values, Table S1: SA0085 VAN (derivative after 40 passages on vancomycin)
[9] = ATCC29213, read-out: MIC values
[10] = SA0736, read-out: MIC values, Table S1: SA0736 VAN (derivative after 40 passages on vancomycin)
[11] = ATCC29213, read-out: MIC values, Table S1: ATCC 29213 DAP (derivative after 40 passages on daptomycin)

## O=C(O)c1cn(C2CC2)c2cc(N3CCNCC3)c(F)cc2c1=O [Ciprofloxacin]
[1]; SA0422, read-out: MIC values
  MIC: 128 µg/mL (≈ 386 µM)
[1]; [6]
  MIC: 32 µg/mL (≈ 96.6 µM)
[1]; [7]
  MIC: 64 µg/mL (≈ 193 µM)
[2]; SA0085, read-out: MIC values
  MIC: 256 µg/mL (≈ 773 µM)
[2]; [8]
  MIC: 32 µg/mL (≈ 96.6 µM)
[3]; [9]
  MIC: 0.25 µg/mL (≈ 0.754 µM)
[4]; SA0736, read-out: MIC values
  MIC: 128 µg/mL (≈ 386 µM)
[4]; SA0736, read-out: MIC values, Table S1: SA0736 DAP-W (40 passages on daptomycin, white colonies)
  MIC: 64 µg/mL (≈ 193 µM)
[4]; SA0736, read-out: MIC values, Table S1: SA0736 DAP-Y (40 passages on daptomycin, yellow colonies)
  MIC: 32 µg/mL (≈ 96.6 µM)
[4]; [10]
  MIC: 16 µg/mL (≈ 48.3 µM)
[5]; SA0077, read-out: MIC values
  MIC: 16 µg/mL (≈ 48.3 µM)
[5]; SA0077, read-out: MIC values, Table S1: SA0077 Abf (passages on antibiotic-free media)
  MIC: 32 µg/mL (≈ 96.6 µM)
[5]; SA0077, read-out: MIC values, Table S1: SA0077 VAN (derivative after 40 passages on vancomycin)
  MIC: 64 µg/mL (≈ 193 µM)

## CCC[C@@H]1C[C@@H](C(=O)N[C@@H]([C@H]2O[C@H](SC)[C@H](O)[C@@H](O)[C@H]2O)[C@H](C)Cl)N(C)C1 [Clindamycin]
[1]; SA0422, read-out: MIC values
  MIC: 0.06 µg/mL (≈ 0.141 µM)
[2]; SA0085, read-out: MIC values
  MIC: > 64 µg/mL
[3]; [9]
  MIC: 0.06 µg/mL (≈ 0.141 µM)
[4]; SA0736, read-out: MIC values
  MIC: 0.06 µg/mL (≈ 0.141 µM)
[5]; SA0077, read-out: MIC values
  MIC: > 64 µg/mL

## CC[C@H]1OC(=O)[C@H](C)[C@@H](O[C@H]2C[C@@](C)(OC)[C@@H](O)[C@H](C)O2)[C@H](C)[C@@H](O[C@@H]2O[C@H](C)C[C@H](N(C)C)[C@H]2O)[C@](C)(O)C[C@@H](C)C(=O)[C@H](C)[C@@H](O)[C@]1(C)O [Erythromycin]
[1]; SA0422, read-out: MIC values
  MIC: 0.125 µg/mL (≈ 0.17 µM)
[1]; [7]
  MIC: 0.5 µg/mL (≈ 0.681 µM)
[2]; SA0085, read-out: MIC values
  MIC: > 128 µg/mL
[3]; [9]
  MIC: 0.25 µg/mL (≈ 0.341 µM)
[3]; [11]
  MIC: 0.125 µg/mL (≈ 0.17 µM)
[3]; ATCC29213, read-out: MIC values, Table S1: ATCC 29213 VAN (derivative after 40 passages on vancomycin)
  MIC: 0.5 µg/mL (≈ 0.681 µM)
[4]; SA0736, read-out: MIC values
  MIC: 0.125 µg/mL (≈ 0.17 µM)
[4]; [10]
  MIC: 0.5 µg/mL (≈ 0.681 µM)
[5]; SA0077, read-out: MIC values
  MIC: > 128 µg/mL

## CC(=O)O[C@H]1C[C@@]2(C)[C@@H](C[C@@H](O)[C@H]3[C@@]4(C)CC[C@@H](O)[C@@H](C)[C@@H]4CC[C@@]32C)/C1=C(\CCC=C(C)C)C(=O)O [Fusidic acid]
[1]; SA0422, read-out: MIC values
  MIC: 0.125 µg/mL (≈ 0.242 µM)
[1]; [6]
  MIC: 0.06 µg/mL (≈ 0.116 µM)
[1]; [7]
  MIC: 0.06 µg/mL (≈ 0.116 µM)
[2]; SA0085, read-out: MIC values
  MIC: 0.125 µg/mL (≈ 0.242 µM)
[3]; [9]
  MIC: 0.25 µg/mL (≈ 0.484 µM)
[3]; [11]
  MIC: 0.125 µg/mL (≈ 0.242 µM)
[4]; SA0736, read-out: MIC values
  MIC: 0.06 µg/mL (≈ 0.116 µM)
[4]; [10]
  MIC: 0.125 µg/mL (≈ 0.242 µM)
[5]; SA0077, read-out: MIC values
  MIC: 0.06 µg/mL (≈ 0.116 µM)

## CNC(C)C1CCC(N)C(OC2C(N)CC(N)C(OC3OCC(C)(O)C(NC)C3O)C2O)O1 (stereo not drawn) [Gentamicin]
[1]; SA0422, read-out: MIC values
  MIC: > 128 µg/mL
[2]; SA0085, read-out: MIC values
  MIC: > 128 µg/mL
[3]; [9]
  MIC: 1 µg/mL (≈ 2.09 µM)
[3]; [11]
  MIC: 0.25 µg/mL (≈ 0.523 µM)
[4]; SA0736, read-out: MIC values
  MIC: > 128 µg/mL
[5]; SA0077, read-out: MIC values
  MIC: > 128 µg/mL

## CC(=O)NC[C@H]1CN(c2ccc(N3CCOCC3)c(F)c2)C(=O)O1 [Linezolid]
[1]; SA0422, read-out: MIC values
  MIC: 2 µg/mL (≈ 5.93 µM)
[1]; [6]
  MIC: 1 µg/mL (≈ 2.96 µM)
[2]; SA0085, read-out: MIC values
  MIC: 4 µg/mL (≈ 11.9 µM)
[2]; [8]
  MIC: 1 µg/mL (≈ 2.96 µM)
[3]; [9]
  MIC: 2 µg/mL (≈ 5.93 µM)
[3]; [11]
  MIC: 1 µg/mL (≈ 2.96 µM)
[4]; SA0736, read-out: MIC values
  MIC: 1 µg/mL (≈ 2.96 µM)
[4]; [10]
  MIC: 2 µg/mL (≈ 5.93 µM)
[5]; SA0077, read-out: MIC values
  MIC: 1 µg/mL (≈ 2.96 µM)
